Tested on: AAT9-1-c (SEQ ID NO: 2)
Assay: Monoterpene and sesquiterpene alcohols tested in the presence of E. coli cells expressing AAT9-1-c
Type: cell-based
Conditions: E. coli cells expressing AAT9-1-c versus empty pACYCDUET-1
Experimental: (§1) 200 μL of those cultures was transferred to 20 mL of LB medium with the appropriate antibiotic in a 100 mL Erlenmeyer flask, and incubated at 37° C., 250 rpm until the A600 was 0.4 to 0.6. […] The next day, dodecane layer was recovered by centrifugation (10 min at 8000×g), diluted in ethyl acetate and analysed by GC FID.

| Molecule | conversion of the alcohol to its corresponding ester by AAT9-1-c |
| --- | --- |
| CC(C)=CCC[C@](C)(O)[C@@H]1CC=C(C)CC1 [(−)-alpha-bisabolol] | not observed to be converted |
| CC1=CC[C@@H](C(C)(C)O)CC1 [alpha terpineol] | corresponding esters could be observed |
| C[C@@H]1CC[C@H]2C(C)(C)[C@H]3C[C@@]12CC[C@@]3(C)O [cedrol] | not observed to be converted |
| CC(C)=CCC/C(C)=C/CO [geraniol] | corresponding esters could be observed |
| C=CC(C)(O)CCC=C(C)CCC=C(C)C (stereo not drawn) [nerolidol] | not observed to be converted |
| C[C@H]1CC[C@@]2(O)C(C)(C)[C@@H]3CC[C@@]2(C)[C@H]1C3 [patchoulol] | not observed to be converted |
| CC1=CC(O)C2CC1C2(C)C (stereo not drawn) [verbenol] | corresponding esters could be observed |

Tested on: not listed separately
Assay: Initial test of Lavandula angustifolia alcohol acyl transferases on linalool
Conditions: not given

| Molecule | linalool as a substrate |
| --- | --- |
| SEQ ID NO: 3: alcohol acyl transferase (AAT) from Lavandula angustifolia, internal designation 10056 (protein, listed as Lavandula angustifolia) MEIETRVISTEIIKPSSPTPKFLQNHRLSFLDQIAPPIFMPVVYFYESNTKFPNSQQSNHLKNSLSQVLTKFYPLAGRLVGNLYVDCDDGGVPFVEAEANFDLSQIITNPNPRNMSKFLPYNESHDFCMAVQATYFRCGGVAVGLLVSHKIADALSFFLFANFWSAVARSGEGGGGQPPKFDVATYFPPRDISGYEPSTGIMKEEITTRIFTFSDKKIAVLREKYAATGSGGDGDLPQRRPTRVEALSAFIWTRFINSTGVKSDPNKIYTVMHAVNLRTRTDPPLTEYHFGNISRLAIANPDVGESGVTDGGVELMQRVREAIKAVDGAYVADLKEGEKHLSLMREKMAQANKGELVSFSFTSLCRFPLYDADFGWGKPVWVGSAGFAYKNLVTFMDTRDGDGIEAWIHSRREDMEKFEVDLELQDFLSHDKSSLISLV | may not prefer linalool as a substrate |
| SEQ ID NO: 4: alcohol acyl transferase (AAT) from Lavandula angustifolia, internal designation 1461 (protein, listed as Lavandula angustifolia) MEIEILSKQSIKPSSLTPSQLRDFKLSFIDERIPPFYIPLILYYTFDEQTNVNQSEMSDRLKTSLADALAKFYPLAGRMKGQISVDCNDQGVLCTEAIANANVLDIVSSPDPLVLDKLIPYVTNGFVSSAQEQLAIQITSFNCGGISIGICFSHRIADASTLSSFIKYWAATACRDRISAVSPVFNSATLFPPRNTPDFTPNPTSPSVRPLAPNLVIKRFLFSSQSINAMKLEVSRNSRILNPTRVEVVTALIWNRCVVAKGIERSNRSVAYHTLNLRGKIPALSERSFGNLFQMIKVESEAETTWILLVEKLRSAFEGFDVKKQLLGEKGFENAKENFMEISQLLRAGNVEVFRFSSYCRLAVYEADFGWGKPVWVSNSCYRNKNCVFLFDSVGSRGGIEAWIVMSERDMERLEQDLEFKRFASF | may not prefer linalool as a substrate |

Tested on: not listed separately
Assay: Conversion of linalool to linalyl acetate by E. coli BL21-RIL expressing Citrus bergamia AAT variants, GC FID
Type: cell-based
Conditions: dodecane with 5 mM linalool (racemic), overnight at 18° C.
Experimental: To this end, the three different variants, and an empty pACYC-DUET-1, were introduced into chemical competent E. coli BL21-RIL (Stratagene), by heat shock transformation, and selected on LB-agar with 1% glucose and […] chloramphenicol. Transformants were transferred to 5 ml LB liquid medium with 1% glucose and 50 ug/ml chloramphenicol and grown overnight at 37° C. and 250 rpm.
as §1

| Molecule | conversion of linalool to linalyl acetate |
| --- | --- |
| AAT9-1-c: alcohol acyl transferase (AAT) from Citrus bergamia, variant AAT9-1-c, amino acid sequence SEQ ID NO: 2 (protein, listed as Citrus bergamia) MKIDVETISREMIKPSTPTPNHLRHYQFSHLDQIGPPFYISLLYFYHLDDDKLVSNNRHLFSDSLKSSLSNVLTKYYPLAGRIKNNYVDCNDEGVFFSEAKVSCQLSEIINEPEFPSEFKKLLPFDQEKDVVSFDSLAIAIQVNMFNCGNVAVAVMISHKIADGSSLSTFTKNWAAAARGESENVFPEFVAARLFPPEDAGGGSGTSFDPRPKKVVLKKFLFEGSKITALRDKYGFDNRIYPTRVEALSAFLWSRLAASNRIKVSSERPCMLIHAVNLRKRVEPQLPADSFGNLFAFAVTVLDENDDDGMVNKFRDAISKIDKDYLKAKKVEHSELIDLGITNGEKFGGGELGYCIISSLCKFPVYEADFGLGKPTWVAWGCFPYKNVIHFIDAKSGDGIEVWVHLEKEVMAKFENDQELLAYVST | linalool was converted to linalyl acetate |
| AAT9-1-a: inactive variant of the alcohol acyl transferase from Citrus bergamia, Tryptophan at position 371, SEQ ID NO: 6 (protein, listed as Citrus bergamia) MKIDVETISREMIKPSTPTPNHLRHYQFSHLDQIGPPFYISLLYFYHLDDDKLVSNNRHLFSDSLKSSLSNVLTKYYPLAGRIKNNYVDCNDEGVFFSEAKVSCQLSEIINEPEFPSEFKKLLPFDQEKDVVSFDSLAIAIQVNMFNCGNVAVAVMISHKIADGSSLSTFTKNWAAAARGESENVFPEFVAARLFPPEDAGGGSGTSFDPRPKKVVLKKFLFEGSKITALRDKYGFDNRIYPTRVEALSAFLWSRLAASNRIKVSSERPCMLIHAVNLRKRVEPQLPADSFGNLFAFAVTVLDENDDDGMVNKFRDAISKIDKDYLKAKKVEHSELIDLGITNGEKFGGGELGYCIISSLCKFPVYEADFWLGKPTWVAWGCFPYKNVIHFIDAKSGDGIEVWVHLEKEVMAKFENDQELLAYVST | could not be observed |
| AAT9-2-a: inactive variant of the alcohol acyl transferase from Citrus bergamia, SEQ ID NO: 8 (protein, listed as Citrus bergamia) MKISVETISREMIKPSTPTPNHLRHYHFSYLDQTAPPLYMSLLYFYHLDDHKLVSNNNHLFINSLKSSLSNVLTKYYPLAGRVKNNYVDCNDEGVVFSEAKVSCLLSEIINELPSEFNKLHPFDQEKDVVSINGLPIAIQVNMFNCGSVAIAVMIFHKIADAASLITFTKNWAAAARGGSGNVFPEFVAARLFPPQDAGGSSGVSVDPRPKKIVLKKFLFEGPKITALRDKYGLDNGIYPTRVEALSAFIWSRLAASTRIKISPERPYMLVHLVNLRKRMEPPLPDDSFGNIIGAAVTVLEENDDDDRMVNKFRDAICKVDKDYLKVMKLEHSELTDLVITNGEIVDRGELGYCFFSSLCKFPVYEADFGLGKPMWVAWGRLPYKNIIHLIDTKSGDGIEAWIHLEEEVMAKFGNDQELLAYVSP | could not be observed |

Source: patent US20240102060A1, “ENZYMES AND METHODS FOR FERMENTATIVE PRODUCTION OF MONOTERPENE ESTERS” (ISOBIONICS B.V., priority 2020, published 2024)
